# Experimental data as given in patent US20030073850A1, “4-Imidazole derivatives of benzyl and restricted benzyl sulfonamides, sulfamides, ureas, carbamates, and amides and their use” (priority 1998, published 2003).
# Counter-ions that a name gives are not always drawn. Like-named read-outs stand apart in the source and are kept apart here.
# Tests used:
# [1] = target: T1, α1b (hamster receptor expressed in mouse fibroblasts) (Mesocricetus auratus, UniProt P18841); assay: Radioligand binding, [3H]-prazosin, α1b
# T1 construct: expressed in transfected cells; host or cells: mouse fibroblasts
# T1 sequence (P18841 1-515): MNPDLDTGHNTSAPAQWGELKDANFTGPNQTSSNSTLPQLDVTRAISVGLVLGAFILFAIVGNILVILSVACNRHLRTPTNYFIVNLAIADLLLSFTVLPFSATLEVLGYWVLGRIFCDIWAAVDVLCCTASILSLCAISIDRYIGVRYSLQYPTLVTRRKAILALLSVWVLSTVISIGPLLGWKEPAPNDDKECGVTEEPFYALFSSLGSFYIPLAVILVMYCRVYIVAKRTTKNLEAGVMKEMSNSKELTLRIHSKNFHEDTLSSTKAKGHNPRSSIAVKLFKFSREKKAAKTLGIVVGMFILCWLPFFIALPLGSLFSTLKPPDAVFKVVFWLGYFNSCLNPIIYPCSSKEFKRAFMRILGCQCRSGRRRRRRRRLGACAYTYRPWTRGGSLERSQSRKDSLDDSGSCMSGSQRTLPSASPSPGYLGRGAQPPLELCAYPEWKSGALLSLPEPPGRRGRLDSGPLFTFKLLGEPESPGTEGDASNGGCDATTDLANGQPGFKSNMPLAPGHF
# Protocol: (§1) For purposes of discussing a, adrenoceptor subtypes, the IUPHAR convention of using lower case letters to define molecular clones and upper case letters to indicate pharmacologically defined adrenoceptors has been followed. Compounds of formula I were evaluated in radioligand binding assays specific for α1A (rat submaxillary gland), α1b (hamster receptor expressed in mouse fibroblasts) and α1d (rat receptor expressed in mouse fibroblasts) using [^3H]-prazosin as the radioligand as described in Knepper, et al. J. Pharm.
# [2] = target: T2, α1A (rat submaxillary gland) (Rattus norvegicus, UniProt P43140); assay: Radioligand binding, [3H]-prazosin, α1A
# T2 construct: α1A (rat submaxillary gland); from tissue; host or cells: rat submaxillary gland
# T2 sequence (P43140 1-466): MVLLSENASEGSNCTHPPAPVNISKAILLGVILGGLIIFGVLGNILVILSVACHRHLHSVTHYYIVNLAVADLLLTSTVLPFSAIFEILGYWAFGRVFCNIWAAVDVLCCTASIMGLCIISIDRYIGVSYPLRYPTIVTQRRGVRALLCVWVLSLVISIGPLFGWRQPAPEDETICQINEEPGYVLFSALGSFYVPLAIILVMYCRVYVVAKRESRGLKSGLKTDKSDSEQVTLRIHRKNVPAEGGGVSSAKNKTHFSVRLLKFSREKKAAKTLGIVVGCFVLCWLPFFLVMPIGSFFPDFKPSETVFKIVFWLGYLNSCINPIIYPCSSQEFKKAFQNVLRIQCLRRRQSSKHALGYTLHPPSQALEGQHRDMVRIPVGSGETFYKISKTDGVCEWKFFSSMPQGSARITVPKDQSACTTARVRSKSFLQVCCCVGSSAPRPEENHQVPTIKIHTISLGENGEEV
# Protocol: as §1
# [3] = target: T3, α1d (rat receptor expressed in mouse fibroblasts) (Rattus norvegicus, UniProt P23944); assay: Radioligand binding, [3H]-prazosin, α1d
# T3 construct: expressed in transfected cells; host or cells: mouse fibroblasts
# T3 sequence (P23944 1-561): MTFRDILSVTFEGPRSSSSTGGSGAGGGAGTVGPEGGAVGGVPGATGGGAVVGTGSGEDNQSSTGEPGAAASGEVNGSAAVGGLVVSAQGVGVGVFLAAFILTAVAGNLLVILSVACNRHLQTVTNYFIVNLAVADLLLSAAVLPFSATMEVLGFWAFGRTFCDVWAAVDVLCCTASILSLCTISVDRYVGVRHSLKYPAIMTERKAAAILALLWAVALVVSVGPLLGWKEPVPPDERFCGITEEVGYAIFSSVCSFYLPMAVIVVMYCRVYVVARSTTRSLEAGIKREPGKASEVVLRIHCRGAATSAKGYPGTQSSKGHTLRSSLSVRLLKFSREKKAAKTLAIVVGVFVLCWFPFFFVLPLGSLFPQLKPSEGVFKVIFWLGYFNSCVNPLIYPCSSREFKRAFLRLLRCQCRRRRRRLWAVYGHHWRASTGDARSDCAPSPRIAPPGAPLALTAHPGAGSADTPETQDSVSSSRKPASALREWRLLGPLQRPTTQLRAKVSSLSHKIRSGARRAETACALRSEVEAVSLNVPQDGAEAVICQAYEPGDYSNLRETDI
# Protocol: as §1
# [4] = hamster receptor expressed in mouse fibroblasts, [3H]-prazosin, read-out: Radioligand Binding Ki α1b (Hamster)
# [5] = rat receptor expressed in mouse fibroblasts, [3H]-prazosin, read-out: Radioligand Binding Ki α1d (Rat)
Compound,"Ki [1, 4]",melting point,other results
"N-[5,6,7,8-tetrahydro-5-(1H-imidazol-4-yl)-1-naphthalenyl]-2-methylethanesulfonamide, Maleate [Example 18]",10 µM,,
"CCOC(=O)Nc1cccc2c1CCCC2c1c[nH]cn1 (centres unmarked) [Example 120, ethyl 5-(1H-imidazol-4-yl)-5,6,7,8-tetrahydro-1-naphthalenylcarbamate]",10 µM,,"Ki [2]: 0.164 µM; Ki [3, 5]: 2.91 µM"
"CCS(=O)(=O)Nc1cccc2c1CCCCC2c1c[nH]cn1.O=C(O)/C=C\C(=O)O (centres unmarked) [Example 40, N-[5-(1H-imidazol-4-yl)-6,7,8,9-tetrahydro-5H-benzo[a]cyclohepten-1-yl]ethanesulfonamide, Maleate]",10 µM,155 to 156 °C,"Ki [3, 5]: 10 µM"
"CCN(C(=O)Nc1cccc2c1CCCC2c1c[nH]cn1)C(C)C (centres unmarked) [Example 118, N-ethyl-N′-[5-(1H-imidazol-4-yl)-5,6,7,8-tetrahydro-1-naphthalenyl]-N-isopropylurea]",10 µM,,"Ki [2]: 0.329 µM; Ki [3, 5]: 0.92 µM"
"O=C(O)/C=C\C(=O)O.O=S(=O)(CC(F)(F)F)Nc1cccc2c1CCCC2c1c[nH]cn1 (centres unmarked) [Example 20, N-[5,6,7,8-tetrahydro-5-(1H-imidazol-4-yl)-1-naphthalenyl]-2,2,2-trifluoroethanesulfonamide, Maleate]",10 µM,138 to 140 °C,
"COC(=O)Nc1cccc2c1CCCC2c1c[nH]cn1 (centres unmarked) [Example 119, methyl 5-(1H-imidazol-4-yl)-5,6,7,8-tetrahydro-1-naphthalenylcarbamate]",,,Ki [1]: 10 µM; Ki [3]: 3.04 µM
"CCn1cnc(C2CCCc3c2ccc(O)c3NS(C)(=O)=O)c1 (centres unmarked) [Example 6, N-[5-(1-ethyl-1H-imidazol-4-yl)-2-hydroxy-5,6,7,8-tetrahydro-1-naphthalenyl]methanesulfonamide, Hydrochloride]",100 µM,,
"CCCn1cnc(C2CCCc3c2ccc(O)c3NS(C)(=O)=O)c1.Cl (centres unmarked) [Example 7, N-[2-hydroxy-5-(1-propyl-1H-imidazol-4-yl)-5,6,7,8-tetrahydro-1-naphthalenyl]methanesulfonamide, Hydrochloride]",100 µM,128 to 133 °C,
"Cc1ccc(NS(C)(=O)=O)c2c1C(c1c[nH]cn1)CCC2.O=C(O)/C=C\C(=O)O (centres unmarked) [Example 23, N-[5,6,7,8-tetrahydro-5-(1H-imidazol-4-yl)-4-methyl-1-naphthalenyl]methanesulfonamide, Maleate]",10 µM,192 to 195 °C,
"O=S(=O)(CC(F)(F)F)Nc1cccc2c1CCCC2c1c[nH]cn1 (single isomer, unassigned; (+)) [Example 36, (+)-N-[5,6,7,8-tetrahydro-5-(1H-imidazol-4-yl)-1-napbthalenyl]-2,2,2-trifluoroethanesulfonamide]",,> 260 °C,"Ki [3, 5]: 10 µM"
"CCS(=O)(=O)Nc1cccc2c1OCCC2c1c[nH]cn1 (centres unmarked) [Example 79, N-[4-(1H-imidazol-4-yl)-3,4-dihydro-2H-chromen-8-yl]ethanesulfonamide]",10 µM,,"Ki [2]: 0.638 µM; Ki [3, 5]: 10 µM"
"CS(=O)(=O)Nc1cccc2c1CCCCC2c1c[nH]cn1.O=C(O)/C=C\C(=O)O (centres unmarked) [Example 38, N-[5-(1H-imidazol-4-yl)-6,7,8,9-tetrahydro-5H-benzo[a]cyclohepten-1-yl]methanesulfonamide, Maleate]",10 µM,162 to 164 °C,
"CS(=O)(=O)Nc1ccc(O)c2c1CCCC2c1c[nH]cn1.O=C(O)/C=C\C(=O)O (centres unmarked) [Example 24, N-[5,6,7,8-tetrahydro-4-hydroxy-5-(1H-imidazol-4-yl)-1-naphthalenyl]methanesulfonamide, Maleate]",10 µM,127 to 131 °C,"Ki [3, 5]: 10 µM"
"CCS(=O)(=O)Nc1ccc(OC)c2c1CCCC2c1c[nH]cn1 (centres unmarked) [Example 25, N-[5,6,7,8-tetrahydro-(1H-imidazol-4-yl)-4-methoxy-1-naphthalenyl]ethanesulfonamide, Maleate]",10 µM,,"Ki [3, 5]: 10 µM"
"CS(=O)(=O)Nc1c(O)ccc2c1CCCC2c1c[nH]cn1.Cl (centres unmarked) [Example 2, N-[2-hydroxy-5-(1H-imidazol-4-yl)-5,6,7,8-tetrahydro-1-naphthalenyl]methanesulfonamide, Hydrochloride]",,135 to 137 °C,
"CCS(=O)(=O)Nc1ccc(Cl)c2c1CCCC2c1c[nH]cn1.O=C(O)/C=C\C(=O)O (centres unmarked) [Example 42, N-[4-chloro-5-(1H-imidazol-4-yl)-5,6,7,8-tetrahydro-1-naphthalenyl]ethanesulfonamide, Maleate]",10 µM,151 to 155 °C,
"CS(=O)(=O)Nc1ccc(Cl)c2c1CCCC2c1c[nH]cn1.O=C(O)/C=C\C(=O)O (centres unmarked) [Example 43, N-[4-chloro-5-(1H-imidazol-4-yl)-5,6,7,8-tetrahydro-1-naphthalenyl]methanesulfonamide, Maleate]",10 µM,175 to 178 °C,
CCS(=O)(=O)Nc1cc(Cc2c[nH]cn2)ccc1C,,140 to 152 °C,
CS(=O)(=O)Nc1cc(Cc2c[nH]cn2)ccc1O.Cl,,167 to 169 °C,
CS(=O)(=O)Nc1ccc(F)c(Cc2c[nH]cn2)c1.O=C(O)/C=C\C(=O)O,,146 to 147 °C,
"CS(=O)(=O)Nc1cccc2c1CCC2c1c[nH]cn1.O=C(O)/C=C\C(=O)O (centres unmarked) [Example 22, N-[1-(1H-imidazol-4-yl)-2,3-dihydro-1H-inden-4-yl]methanesulfonamide, Maleate]",,168 to 169 °C,
CCS(=O)(=O)Nc1cccc(Cc2c[nH]cn2)c1Cl,,182 to 184 °C,
CCS(=O)(=O)Nc1cccc(C(C)c2c[nH]cn2)c1.O=C(O)/C=C\C(=O)O (centres unmarked),,114 to 119 °C,
CCS(=O)(=O)Nc1ccc(C)c(Cc2c[nH]cn2)c1,,194 to 196 °C,
"Cc1noc(C)c1S(=O)(=O)Nc1cccc2c1CCCC2c1c[nH]cn1 (centres unmarked) [Example 61, N-[5-(1H-imidazol-4-yl)-5,6,7,8-tetrahydro-1-naphthalenyl]-3,5-dimethyl-4-isoxazolesulfonamide]",10 µM,,"Ki [3, 5]: 10 µM"
CCS(=O)(=O)Nc1cc(Cc2c[nH]cn2)ccc1Cl,,159 to 160 °C,
Cc1cc(Cc2c[nH]cn2)c(C)c(NS(C)(=O)=O)c1,,197 to 199 °C,
"O=S(=O)(Nc1cccc2c1CCCC2c1c[nH]cn1)C1CC1 (centres unmarked) [Example 27, N-[5,6,7,8-tetrahydro-(1H-imidazol-4-yl)-1-naphthalenyl]cyclopropanesulfonamide, Maleate]",10 µM,,
"CCC(O)(c1cccc(NS(=O)(=O)CC)c1)c1c[nH]cn1 (centres unmarked) [Example 55, N-[3-(1-hydroxy-1-(1H-imidazol-4-yl)propyl)phenyl]ethanesulfonamide]",,120 to 124 °C,
"CCS(=O)(=O)Nc1cccc2c1CCCC2c1c[nH]cn1.O=C(O)/C=C\C(=O)O (centres unmarked) [Example 12, N-[5-(1H-imidazol-4-yl)-5,6,7,8-tetrahydro-1-naphthalenyl]ethanesulfonamide Maleate]",,129 to 132 °C,
